Experimental data taken from ChEMBL document CHEMBL5725790, “Compositions and methods for the production of pyrimidine and pyridine compounds with BTK inhibitory activity” (2017).
pIC50: −log10 of the molar value.

target: Tyrosine-protein kinase BTK (Homo sapiens, UniProt Q06187); test: Enzyme Assay: The following describes a microfluidic, off-chip mobility shift kinase assay used to measure inherent potency of compounds against BTK enzyme. Compounds described by embodiments of the present invention were assayed using this protocol and the data from the same is recorded in Table 2 within the column labeled: Time Dependent BTK Enzyme Assay IC50. […] Stopped reactions were monitored at −2 PSI, −3000 V/−700 V in a LabChip 3000 plate reader from Caliper Life Sciences, a PerkinElmer Company (Hopkinton, Mass.), and the activity was measured by off-chip mobility shift assay measuring the charge/mass difference between substrate and product resulting from peptide phosphorylation. IC50 and efficacy were determined by plotting log [Inhibitor] vs. % Activity in GeneData Screener (Basel, Switzerland). Compounds described by embodiments of the present invention were assayed using this protocol and the data from the same is recorded in Table 2 within the column labeled: Time Dependent […] BTK Enzyme Assay IC50.
Sequence (Q06187 whole entry): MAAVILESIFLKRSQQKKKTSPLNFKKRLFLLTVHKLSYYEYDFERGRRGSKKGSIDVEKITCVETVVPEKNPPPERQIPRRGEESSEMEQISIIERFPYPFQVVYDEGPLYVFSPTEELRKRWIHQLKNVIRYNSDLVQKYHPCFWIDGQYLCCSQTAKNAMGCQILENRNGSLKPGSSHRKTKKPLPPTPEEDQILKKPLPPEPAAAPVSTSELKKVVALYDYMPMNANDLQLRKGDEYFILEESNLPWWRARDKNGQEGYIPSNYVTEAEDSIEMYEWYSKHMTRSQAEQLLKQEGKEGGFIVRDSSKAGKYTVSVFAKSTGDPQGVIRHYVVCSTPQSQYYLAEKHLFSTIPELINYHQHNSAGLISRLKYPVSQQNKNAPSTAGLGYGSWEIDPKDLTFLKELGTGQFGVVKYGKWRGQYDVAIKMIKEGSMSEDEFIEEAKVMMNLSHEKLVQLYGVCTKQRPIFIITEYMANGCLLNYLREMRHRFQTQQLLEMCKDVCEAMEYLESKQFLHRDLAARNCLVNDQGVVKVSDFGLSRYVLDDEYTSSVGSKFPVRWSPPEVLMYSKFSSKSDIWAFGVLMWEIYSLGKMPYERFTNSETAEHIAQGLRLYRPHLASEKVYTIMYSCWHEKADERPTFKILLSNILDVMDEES

pIC50	SMILES
> 6.00	C=CC(=O)Nc1cncc(Oc2ncnc(N)c2-c2ccc(Oc3ccc(C#N)cc3)cc2)c1
< 6.00	N#CC1(C(=O)Nc2cccc(-c3c(N)ncnc3Oc3ccc(Oc4ccccc4)cc3)c2)CC1
> 6.00	C=CC(=O)Nc1cccc(Oc2ncnc(N)c2-c2cnn(Cc3cccc(S(C)(=O)=O)c3)c2)c1
> 7.00	C=CC(=O)Nc1cccc(Oc2ncnc(N)c2-c2ccc(Oc3ccccc3)cc2)c1F
< 6.00	CCC(=O)Nc1cccc(Oc2ccnc(C(N)=O)c2-c2ccc(Oc3ccccc3)cc2)c1
< 6.00	CCC(=O)Nc1cccc(Oc2ccncc2-c2ccc(Oc3ccccc3)cc2)c1
< 6.00	C=CC(=O)N1CC2(CC(Nc3ncnc(N)c3-c3cnn(Cc4ccncc4)c3)C2)C1

SMILES	pIC50
Nc1ncnc(NC2CC3(C2)CN(S(=O)(=O)CCCl)C3)c1-c1ccc(Oc2ccccc2)cc1	> 7.00
